Data taken from ChEMBL document CHEMBL1201862, “PubChem BioAssay data set” (2004).
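Following 48 hours of exposure in 96-well plates, responses at five concentrations were used to interpolate endpoints linearly. GI50 marks 50% less growth.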 Calls of active or inactive are those of the source. No stated cut-off is given here; in the data, active = GI50 up to about 1.1 µM and inactive = higher.

Assays:
Test in all cases: NCI anticancer screen, dose series, 48 h
786-0 = system: 786-0
CAKI-1 = system: CAKI-1
HT-29 = system: HT-29
KM12 = system: KM12
LOX IMVI = system: LOX IMVI
M14 = system: M14
MDA-MB-231 = system: MDA-MB-231
Malme-3M = system: Malme-3M
NCI-H23 = system: NCI-H23
OVCAR-3 = system: OVCAR-3
OVCAR-8 = system: OVCAR-8
SF-295 = system: SF-295
SK-MEL-2 = system: SK-MEL-2
SNB-19 = system: SNB-19
CCRF-CEM = system: CCRF-CEM
NCI-H460 = system: NCI-H460
SF-539 = system: SF-539
SK-OV-3 = system: SK-OV-3
SNB-75 = system: SNB-75

| SMILES | GI50 (786-0) | GI50 (CAKI-1) | GI50 (HT-29) | GI50 (KM12) | GI50 (LOX IMVI) | GI50 (M14) | GI50 (MDA-MB-231) | GI50 (Malme-3M) | GI50 (NCI-H23) | GI50 (OVCAR-3) | GI50 (OVCAR-8) | GI50 (SF-295) | GI50 (SK-MEL-2) | GI50 (SNB-19) | GI50 (CCRF-CEM) | GI50 (NCI-H460) | GI50 (SF-539) | GI50 (SK-OV-3) | GI50 (SNB-75) |
| --- | --- | --- | --- | --- | --- | --- | --- | --- | --- | --- | --- | --- | --- | --- | --- | --- | --- | --- | --- |
| CC(C)CC1c2[nH]c3ccccc3c2C[C@H]2C(=O)NC(CCCCNC(=O)OC(C)(C)C)C(=O)N12 (stereo partly specified) | 20.9 µM (inactive) | 37.3 µM (inactive) | 23.5 µM (inactive) | 17 µM (inactive) | 24.6 µM (inactive) | 35.3 µM (inactive) | 17 µM (inactive) | 31.6 µM (inactive) | 33 µM (inactive) | 2.36 µM (inactive) | 34.2 µM (inactive) | 12.3 µM (inactive) | 21.6 µM (inactive) | 47.1 µM (inactive) | – | – | – | – | – |
| O=C(O)CC(Cc1ccccc1)C(=O)O (stereo unspecified) | 76.2 µM (inactive) | > 100 µM (inactive) | > 100 µM (inactive) | > 100 µM (inactive) | > 100 µM (inactive) | > 100 µM (inactive) | – | > 100 µM (inactive) | > 100 µM (inactive) | > 100 µM (inactive) | > 100 µM (inactive) | > 100 µM (inactive) | > 100 µM (inactive) | > 100 µM (inactive) | > 100 µM (inactive) | > 100 µM (inactive) | > 100 µM (inactive) | > 100 µM (inactive) | – |
| CC(=O)N1N=C(c2c(O)ccc3ccccc23)CC1C(=O)c1ccco1 (stereo unspecified) | 30.8 µM (inactive) | 42.6 µM (inactive) | 33.8 µM (inactive) | 28.1 µM (inactive) | – | 22.4 µM (inactive) | 18.4 µM (inactive) | 30.5 µM (inactive) | 22.2 µM (inactive) | 17.7 µM (inactive) | 39 µM (inactive) | 35.2 µM (inactive) | 16.6 µM (inactive) | – | 14.9 µM (inactive) | 34.5 µM (inactive) | 21.1 µM (inactive) | 48.6 µM (inactive) | 17.9 µM (inactive) |
| O=C(O)c1ccc(-c2nc3cc(Cl)ccc3[nH]2)cc1 | > 100 µM (inactive) | > 100 µM (inactive) | > 100 µM (inactive) | > 100 µM (inactive) | – | > 100 µM (inactive) | > 100 µM (inactive) | – | – | > 100 µM (inactive) | > 100 µM (inactive) | > 100 µM (inactive) | > 100 µM (inactive) | > 100 µM (inactive) | > 100 µM (inactive) | – | > 100 µM (inactive) | > 100 µM (inactive) | > 100 µM (inactive) |
| Cc1c(Cl)c(=O)oc2cc(OCC(O)COC(C)C)ccc12 (stereo unspecified) | 39.9 µM (inactive) | > 10 µM (inactive) | 40.2 µM (inactive) | 50.5 µM (inactive) | 35 µM (inactive) | 32.2 µM (inactive) | – | 20 µM (inactive) | > 100 µM (inactive) | 97.5 µM (inactive) | 33.7 µM (inactive) | 64.4 µM (inactive) | 30.3 µM (inactive) | > 100 µM (inactive) | 34.3 µM (inactive) | 36.1 µM (inactive) | – | > 100 µM (inactive) | – |
| Cc1cc(S(=O)(=O)N/C(=C(\C#N)C(=O)c2ccc(Cl)cc2)[n+]2ccc(N(C)C)cc2)c([S-])cc1Cl | > 100 µM (inactive) | > 100 µM (inactive) | 30.1 µM (inactive) | > 100 µM (inactive) | – | 41.9 µM (inactive) | > 100 µM (inactive) | 0.836 µM (active) | – | 45.1 µM (inactive) | > 100 µM (inactive) | 62.2 µM (inactive) | 4.84 µM (inactive) | – | 64 µM (inactive) | 42.6 µM (inactive) | 67.3 µM (inactive) | 30.5 µM (inactive) | – |
| COc1ccc(C(=O)/C=C/c2ccc(OCC#N)cc2)cc1 | 42.2 µM (inactive) | 19.5 µM (inactive) | 33.3 µM (inactive) | 17.5 µM (inactive) | – | 20 µM (inactive) | 23.4 µM (inactive) | 20.5 µM (inactive) | 21.3 µM (inactive) | 30.8 µM (inactive) | 34.5 µM (inactive) | 41 µM (inactive) | – | 26.2 µM (inactive) | 23.2 µM (inactive) | 27.3 µM (inactive) | 20.4 µM (inactive) | 43.3 µM (inactive) | 77.1 µM (inactive) |
| CC(=O)/C(=C\I)c1ccccc1 | 2.12 µM (inactive) | – | 0.995 µM (active) | 3.57 µM (inactive) | 1.67 µM (inactive) | 2.31 µM (inactive) | 1.85 µM (inactive) | 1.67 µM (inactive) | 2.23 µM (inactive) | 1.7 µM (inactive) | 1.82 µM (inactive) | 19.1 µM (inactive) | 2.6 µM (inactive) | 12.1 µM (inactive) | 1.97 µM (inactive) | 11.2 µM (inactive) | 18 µM (inactive) | 13.6 µM (inactive) | 3.94 µM (inactive) |
| O=C(O)Cc1c(-c2ccc([N+](=O)[O-])cc2)c(=O)oc2cc(O)ccc12 | 36.5 µM (inactive) | > 10 µM (inactive) | 11.6 µM (inactive) | 26.9 µM (inactive) | 36.1 µM (inactive) | 32.1 µM (inactive) | 29.4 µM (inactive) | 24.1 µM (inactive) | 36.3 µM (inactive) | 18.9 µM (inactive) | 23.2 µM (inactive) | 16.1 µM (inactive) | 21.2 µM (inactive) | 25.1 µM (inactive) | 22.5 µM (inactive) | 28.9 µM (inactive) | 32.4 µM (inactive) | 35.2 µM (inactive) | – |
| COc1cc(NC(C)c2ccc3c(c2)OCCO3)cc(OC)c1OC (stereo unspecified) | 34.4 µM (inactive) | 46 µM (inactive) | 33.7 µM (inactive) | 31.5 µM (inactive) | 46.2 µM (inactive) | 31.4 µM (inactive) | 32.5 µM (inactive) | 19.1 µM (inactive) | 18.9 µM (inactive) | 32.1 µM (inactive) | 47.3 µM (inactive) | 23.9 µM (inactive) | 23.2 µM (inactive) | 95.5 µM (inactive) | – | 31.6 µM (inactive) | 22.1 µM (inactive) | – | – |
| CN(C)Cc1cc(C=O)cc(CN(C)C)c1O | > 100 µM (inactive) | – | > 100 µM (inactive) | > 100 µM (inactive) | > 100 µM (inactive) | – | > 100 µM (inactive) | > 100 µM (inactive) | 26.1 µM (inactive) | > 100 µM (inactive) | > 100 µM (inactive) | > 100 µM (inactive) | – | > 100 µM (inactive) | > 100 µM (inactive) | > 100 µM (inactive) | > 100 µM (inactive) | – | > 100 µM (inactive) |
| COc1ccc(-c2c(N)n(-c3cc(OC)cc(OC)c3)c(=O)c3cc([N+](=O)[O-])ccc23)cc1 | > 49.5 µM (inactive) | 31.4 µM (inactive) | > 53.2 µM (inactive) | > 54.5 µM (inactive) | 24.7 µM (inactive) | 32.4 µM (inactive) | 28.6 µM (inactive) | > 100 µM (inactive) | > 92 µM (inactive) | 24.4 µM (inactive) | > 100 µM (inactive) | > 100 µM (inactive) | > 100 µM (inactive) | 28.3 µM (inactive) | > 77.8 µM (inactive) | > 100 µM (inactive) | > 78.3 µM (inactive) | > 100 µM (inactive) | – |
| CCOP(=O)(OCC)OC1CC(n2cnc3c(N(CC)CC)ncnc32)OC1CO[Si](C)(C)C(C)(C)C (stereo unspecified) | 16.1 µM (inactive) | 17.5 µM (inactive) | 16.6 µM (inactive) | 19.7 µM (inactive) | 16.2 µM (inactive) | 18.8 µM (inactive) | – | 22.4 µM (inactive) | 17 µM (inactive) | 20.3 µM (inactive) | 21.1 µM (inactive) | 16.7 µM (inactive) | 21.7 µM (inactive) | 18.2 µM (inactive) | 14.4 µM (inactive) | 15 µM (inactive) | 19.1 µM (inactive) | 17.5 µM (inactive) | 11.1 µM (inactive) |
| O=C1CSC(=O)/C1=C\NNc1nc2ccccc2o1 | 40.2 µM (inactive) | 23.9 µM (inactive) | 24.7 µM (inactive) | 67.9 µM (inactive) | 22.4 µM (inactive) | 19.3 µM (inactive) | 30.9 µM (inactive) | 31.5 µM (inactive) | 24.5 µM (inactive) | 17.4 µM (inactive) | 13.6 µM (inactive) | 19.9 µM (inactive) | 37.2 µM (inactive) | 19.6 µM (inactive) | 1.09 µM (active) | 23.8 µM (inactive) | 11.4 µM (inactive) | 32.3 µM (inactive) | – |
| CSc1nc(-c2cc3c(c(SC)n2)CCC3)cc2c1CCC2 | > 100 µM (inactive) | > 100 µM (inactive) | > 100 µM (inactive) | > 100 µM (inactive) | – | > 100 µM (inactive) | > 100 µM (inactive) | – | > 100 µM (inactive) | > 100 µM (inactive) | > 100 µM (inactive) | > 100 µM (inactive) | > 100 µM (inactive) | > 100 µM (inactive) | > 100 µM (inactive) | > 100 µM (inactive) | > 100 µM (inactive) | > 100 µM (inactive) | > 100 µM (inactive) |
| CC(=O)OC1CN2CCC1CC2 (stereo unspecified) [ACECLIDINE] | > 100 µM (inactive) | > 100 µM (inactive) | > 100 µM (inactive) | > 100 µM (inactive) | > 100 µM (inactive) | > 100 µM (inactive) | > 100 µM (inactive) | > 100 µM (inactive) | > 100 µM (inactive) | > 100 µM (inactive) | > 100 µM (inactive) | > 100 µM (inactive) | – | > 100 µM (inactive) | > 100 µM (inactive) | > 100 µM (inactive) | > 100 µM (inactive) | > 100 µM (inactive) | – |
